Data as given in patent US20220323427A1, “SOMATOSTATIN RECEPTOR TYPE 5 AGONIST FOR THE TREATMENT OF HYPERINSULINISM” (Crinetics Pharmaceuticals, Inc., priority 2021, published 2022).

Assays:
[1] = biological target: T1, human somatostatin receptor subtype 2 (Homo sapiens, UniProt P30874); experiment: cAMP assay for SST2R; assay type: cell-based; details: inhibition of cAMP, CHO-K1 cells expressing human SST2; read-out: SST2 potency (EC50; nM)
T1 construct: expressed in transfected cells
Source text: General overview: All five SSTR subtypes are Gi coupled G-protein coupled receptors (GPCRs) that lead to decreases in intracellular cyclic AMP (cAMP) when activated by an agonist. Therefore, measurement of intracellular cAMP levels can be used to assess whether compounds of the invention are agonists of SSTR subtypes (John Kelly, Troy Stevens, W. Joseph Thompson, and Roland Seifert, Current Protocols in Pharmacology, 2005, 2.2.1-2.2). One example of an intracellular cAMP assay is described below.
Four days prior to the assay, 5,000 Chinese hamster ovary cells (CHO-K1, ATCC #CCL-61) stably expressing the human somatostatin receptor subtype 2 are plated in each well of a 96-well tissue culture-treated plate in Ham's F12 growth media (ThermoFisher #10-080-CM) supplemented with 10% donor bovine serum (Gemini Bio-Products #100-506), 100 U/mL penicillin; 100 ug/mL streptomycin; 2 mM L-glutamine (Gemini Bio-Products #400-110) and 0.2 mg/mL hygromycin B (GoldBio #31282-04-9). The cells are cultured at 37° C., 5% CO2 and 95% humidity. […] The time-resolved fluorescent signal is read with a Tecan M1000Pro multiplate reader. The intracellular cAMP concentrations are calculated by regression to a standard curve and are plotted vs. the concentration of the compounds of the invention and the EC50 of the compounds are calculated using standard methods. […]

[2] = system: glucose stimulated insulin secretion; experiment: Intravenous glucose tolerance test (IVGTT), SAD; assay type: in vivo, human
Description: The results from the IVGTT will help inform selection of the single dose that will be used in SAD 1b and SAD 1c and also to inform the doses used in the MAD.
A summary of the procedure is as follows: Collect pre-IV bolus blood samples for measurement of PG, insulin, and C-peptide. At 1 hour after study drug dosing/Time 60 (±30 minutes) or nominal time, administer an IV bolus of glucose at 300 mg/kg in 20% solution, within 60 seconds (use the most recent body weight measurement for glucose dose). Collect post-IV bolus blood samples for measurement of PG, insulin, and C-peptide.

[3] = system: sulfonylurea-induced hyperinsulinism; experiment: Sulfonylurea (glibenclamide) challenge and euglycemic clamp, SAD; assay type: in vivo, human; details: single dose 30 mg or 60 mg
Description: SAD 1b/Part 1b: ascending single dose, randomized, placebo-controlled, double-blind; up to 3 cohorts, n=8/cohort; subjects in SAD 1b will undergo an SU challenge and euglycemic clamp procedure. Doses are 30 mg or 60 mg.
In SAD 1b and the MAD, subjects will undergo an SU challenge in the setting of a euglycemic clamp procedure. Sulfonylurea drugs act to close KATP channel of the pancreatic β-cell, stimulating endogenous insulin secretion. Given that the majority (50%) of patients with congenital HI harbor a mutation in the KATP channel, the SU challenge models this genetic form of HI in healthy volunteers. Intravenous glucose will be used during the euglycemic clamp to maintain glucose within a target range. […] The SU challenge cohorts in SAD 1b will assess the ability of a single dose of Compound 1 to reduce or prevent SU-induced glucose lowering as measured by reduced IV glucose infusion (reduced glucose “support”). IV glucose requirements will be assessed as a glucose infusion rate, or GIR (mg dextrose/kg body weight/minute). In the MAD, the durability of the Compound 1 effect will be measured by assessing the GIR required to maintain euglycemia during the SU challenge after 10 days of Compound 1 dosing compared to the baseline SU challenge in the absence (predose) of Compound 1. […]

[4] = single oral dose prior to IV glucose

T1 sequence (P30874 whole entry): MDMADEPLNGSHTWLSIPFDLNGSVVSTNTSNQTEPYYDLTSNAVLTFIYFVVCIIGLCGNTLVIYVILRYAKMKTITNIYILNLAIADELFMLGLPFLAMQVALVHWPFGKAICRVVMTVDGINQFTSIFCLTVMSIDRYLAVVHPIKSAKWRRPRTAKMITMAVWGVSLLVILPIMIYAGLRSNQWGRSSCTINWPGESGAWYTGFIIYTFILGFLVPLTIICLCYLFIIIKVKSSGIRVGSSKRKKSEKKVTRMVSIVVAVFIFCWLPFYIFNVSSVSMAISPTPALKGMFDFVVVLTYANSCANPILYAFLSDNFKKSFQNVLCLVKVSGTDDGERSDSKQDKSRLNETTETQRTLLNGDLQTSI

EC50 [1]: > 100 nM
SMILES: C[C@H](NC(=O)c1cnc(C#N)c(-c2cc(F)cc(F)c2)c1N1CC[C@H](N)C1)C(F)(F)F [Compound 1, 4-[(3S)-3-aminopyrrolidin-1-yl]-6-cyano-5-(3,5-difluorophenyl)-N-[(2S)-1,1,1-trifluoropropan-2-yl]pyridine-3-carboxamide]
% reduction in insulin AUC ([2]; 27 mg dose): about 22%
% reduction in insulin AUC ([2]; 60 mg dose): about 40%
% reduction in insulin AUC ([2]; 120 mg dose): about 47%
Insulin secretion in IVGTT [2, 4]: dose-dependently suppressed insulin secretion
Plasma glucose in IVGTT [2, 4]: rapid and sustained increase in plasma glucose levels
Effect on sulfonylurea-induced hyperinsulinism [3]: reversed sulfonylurea-induced hyperinsulinism
Need for IV glucose support (glucose infusion rate) [3]: eliminating the need for IV glucose support
